The record followed here is publication PMC7684622, “The application of L‐glutaminase for the synthesis of the immunomodulatory γ‐D‐glutamyl‐L‐tryptophan and the kokumi‐imparting γ‐D‐glutamyl peptides” (Food Science & Nutrition, 2020).

For the first experiment, the system named is T1, L-glutaminase of Bacillus amyloliquefaciens.
T1 construct: gene ggt; commercial enzyme preparation (Amano Enzyme China); called L-Gln amidohydrolase EC 3.5.1.2 with gamma-glutamyl transpeptidase activity
Nature of the experiment: transpeptidation, product by HPLC / UPLC-MS. It counts as biochemical. The conditions noted are these: acceptor; fixed 25 mM D-Gln; apparent; read-out: Synthesis. From the text:
transpeptidation, product by HPLC / UPLC-MS on L-glutaminase of Bacillus amyloliquefaciens
Turning to `N[C@@H](Cc1ccccc1)C(=O)O` [L-Phe], the Km is 46.3 ± 2.32 mM. Same read-out and setting: the value for `CSCC[C@H](N)C(=O)O` [L-Met] was 88.8 ± 6.12 mM; that for `CC(C)[C@H](N)C(=O)O` [L-Val] was 76.6 ± 3.25 mM; that for `N[C@@H](Cc1c[nH]c2ccccc12)C(=O)O` [L-Trp] was 32.5 ± 3.86 mM.

The test system is the same in another experiment. Nature of the experiment: hydrolysis, HPLC / UPLC-MS. It counts as biochemical. The conditions noted are these: hydrolysis reaction; apparent. From the text: hydrolysis, HPLC / UPLC-MS on L-glutaminase of Bacillus amyloliquefaciens
With `CC(C)[C@H](NC(=O)CC[C@@H](NC(=O)CC[C@@H](N)C(=O)O)C(=O)O)C(=O)O` [γ-[D-Glu]2-L-Val], the Km is 90.4 ± 6.25 mM. For the compound `CSCC[C@H](NC(=O)CC[C@@H](N)C(=O)O)C(=O)O` [γ-D-Glu-L-Met], the Km was found to be 62.2 ± 4.61 mM. The same measure, in the same setting: the result for `N[C@@H](CCC(=O)N[C@@H](Cc1c[nH]c2ccccc12)C(=O)O)C(=O)O` [γ-L-Glu-L-Trp] reads 15.7 ± 1.82 mM; that for `CC(C)[C@H](NC(=O)CC[C@@H](N)C(=O)O)C(=O)O` [γ-D-Glu-L-Val], 68.8 ± 5.25 mM.

Turning to `N[C@H](CCC(=O)N[C@@H](Cc1ccccc1)C(=O)O)C(=O)O` [γ-D-Glu-L-Phe], the Km is 52.8 ± 3.02 mM. On the same count and under the same terms, the value for `N[C@H](CCC(=O)N[C@@H](Cc1c[nH]c2ccccc12)C(=O)O)C(=O)O` [γ-D-Glu-L-Trp] was 36.7 ± 2.86 mM.

The next experiment shares this test system. Put plainly: transpeptidation, gamma-L-Glu-L-Trp formed, by HPLC / UPLC-MS. It counts as biochemical. The conditions noted are these: gamma-glutamyl donor; fixed 25 mM L-Trp; apparent; read-out: Synthesis. From the text: transpeptidation, gamma-L-Glu-L-Trp formed, by HPLC / UPLC-MS on L-glutaminase of Bacillus amyloliquefaciens
As for `NC(=O)CC[C@H](N)C(=O)O` [L-Gln], the Km was 980 ± 80 µM.

Another experiment shares this test system. Put plainly: transpeptidation, gamma-D-Glu-L-Trp formed, by HPLC / UPLC-MS. In kind it is biochemical. Particulars: gamma-glutamyl donor; fixed 25 mM L-Trp; apparent; read-out: Synthesis. From the text: transpeptidation, gamma-D-Glu-L-Trp formed, by HPLC / UPLC-MS on L-glutaminase of Bacillus amyloliquefaciens
`NC(=O)CC[C@@H](N)C(=O)O` [D-Gln]: the Km amounted to 5.53 ± 0.98 mM.
